Data from US6743583B2, “Identification of drugs and drug targets by detection of the stress response” (priority 2000, dated 2004).
Where two headings read alike, the source gives them in different places.

Tests used:
[1] = test system: yeast stress response genes; settings: MMS 0.1%; published data; cited from earlier work
[2] = test system: yeast stress response genes; settings: published data, cited from earlier work
tub2 heterozygote = assay: HSP26 promoter GFP-uv reporter stress response, fluorimeter; format: cell-based, Saccharomyces cerevisiae; set-up: key: F = fluorescent activity from hsp reporter construct, indicating stress response is induced; NF = no fluorescence, no induction of stress response; settings: predicted expectations
From the text: (§1) Stress response gene reporter constructs are generally constructed as follows: approximately 500 bp to approximately 1,000 bp or more region upstream of the first start codon of the stress gene of interest (the region encompassing the stress response gene promoter) is fused to the coding region of a reporter polypeptide (e.g., GFP-uv in pRS316 (Sikorski and Hieter (1989) Genetics 122(1):19-27, Clontech). In a specific exemplary construct, approximately 500 bp of the sequence upstream of the hsp26 gene were ligated to the coding region of GFP-uv in pRS316 to provide for expression of the GFP-uv reporter polypeptide under control of the HSP26 promoter.
(§2) 80% of all heterozygous deletion strains of Saccharomyces cerevisiae have been constructed. Heterozygous deletion strains were generated using homologous gene transplacement (Rothstein, R. (1991) Meth. Enzymol. 194:281-301) in wild-type diploid strains using standard methods. The resulting heterozygotes carry a deletion in one of the two copies of a given gene.
(§3) The above-described HSP26 construct and a control construct (containing no upstream HSP26 promoter sequence) is transformed into 4 strains: a wildtype strain and strains heterozygous for ALG7, HIS3, and TUB2. The his3 heterozygous strain is sensitive to 3-amino triazole; the alg7 heterozygous strain is sensitive to tunicamycin; and the tub2 heterozygous strain is sensitive to benomyl. The expression of hsp26 activity is then monitored using a fluorimeter. Comparisons (with predicted expectations) are as follows: […]

alg7 heterozygote = assay: as above; format: cell-based, Saccharomyces cerevisiae; set-up: key: F = fluorescent activity from hsp reporter construct, indicating stress response is induced; NF = no fluorescence, no induction of stress response; settings: predicted expectations
From the text: as §1, §2, §3

his3 heterozygote = assay: as above; format: cell-based, Saccharomyces cerevisiae; set-up: key: F = fluorescent activity from hsp reporter construct, indicating stress response is induced; NF = no fluorescence, no induction of stress response; settings: predicted expectations
From the text: as §1, §2, §3

his3 heterozygous strain = settings: cited from earlier work
Wildtype strain = assay: HSP26 promoter GFP-uv reporter stress response, fluorimeter; format: cell-based, Saccharomyces cerevisiae; set-up: key: F = fluorescent activity from hsp reporter construct, indicating stress response is induced; NF = no fluorescence, no induction of stress response; settings: predicted expectations
From the text: as §1, §3

Which results are given for COS(C)(=O)=O [MMS]?
fold induction of AMS1 (YGL156W) [1]: 3.3 fold; fold induction of DDR48 (YMR173w) [1]: 6 fold; fold induction of GFA1 (YKL104C) [1]: 3.3 fold; fold induction of GSC2 (YGR032W) [1]: 2.5 fold; fold induction of HSP10 (YOR020C) [1]: 1 fold; fold induction of HSP12 (YFL014W) [1]: 4.2 fold; fold induction of HSP26 (YBR072W) [1]: 2.6 fold; fold induction of HSP30 (YCR021C) [1]: 2 fold; fold induction of HSP42 (YDR171w) [1]: 1.5 fold; fold induction of HSP60 (YLR259C) [1]: 1 fold; fold induction of HSP78 (YDR258C) [1]: 2.8 fold; fold induction of HSP82 (YPL240C) [1]: 1.8 fold; fold induction of HSP104 (YLL026W) [1]: 2 fold; fold induction of HXT5 (YHR096C) [1]: 1.9 fold; fold induction of ISF1 (YMR081C) [1]: 2.9 fold; fold induction of PAI3 (YMR174C) [1]: 5.1 fold; fold induction of PRY1 (YJL079C) [1]: 1 fold; fold induction of PUT1 (YLR142W) [1]: 1 fold; fold induction of SNZ3 (YFL059W) [1]: 2.3 fold; fold induction of SSA1 (YAL005C) [1]: 6.4 fold; fold induction of TSI1 (YLR178C) [1]: 5.7 fold; fold induction of UBC5 (YDR059c) [1]: 5.5 fold; fold induction of YBL049W [1]: 1 fold; fold induction of YDR018C [1]: 1 fold; fold induction of YFL030W [1]: 5 fold; fold induction of YFR026C [1]: 2.2 fold; fold induction of YGR043C [1]: 3.5 fold; fold induction of YIL042C [1]: 1.4 fold; fold induction of YIL117C [1]: 2.3 fold; fold induction of YJL144W [1]: 1.6 fold; fold induction of YKL107W [1]: 1.7 fold; fold induction of YLR053C [1]: 1 fold; fold induction of YLR080W [1]: 5.6 fold; fold induction of YLR194C [1]: 1 fold; fold induction of YMR040W [1]: 1.5 fold; fold induction of YMR090W [1]: 8 fold; fold induction of YMR107W [1]: 1 fold; fold induction of YNL194C [1]: 2.9 fold; fold induction of YPS3 (YLR121C) [1]: 1 fold

For C=CC[C@@H]1/C=C(\C)C[C@H](C)C[C@H](OC)[C@H]2O[C@@](O)(C(=O)C(=O)N3CCCC[C@H]3C(=O)O[C@H](/C(C)=C/[C@@H]3CC[C@@H](O)[C@H](OC)C3)[C@H](C)[C@@H](O)CC1=O)[C@H](C)C[C@@H]2OC [FK506], which “fold induction of DDR48 (YMR173w)” value ([2]; FK506 50 μM) is on record?
The value was 1 fold.

What about the “fold induction of HSP10 (YOR020C)” value ([2]; FK506 50 μM) of the same compound?
The value was 1 fold.

What about the “fold induction of HSP12 (YFL014W)” value ([2]; FK506 50 μM) of the same compound?
The value was 1 fold.

And the “fold induction of HSP26 (YBR072W)” value ([2]; FK506 50 μM)?
Its value is 7.1 fold.

What about the “fold induction of HSP30 (YCR021C)” value ([2]; FK506 50 μM) of the same compound?
The value was 2.3 fold.

What about the “fold induction of HSP42 (YDR171w)” value ([2]; FK506 50 μM) of the same compound?
Its value is 8.7 fold.

What about the “fold induction of HSP60 (YLR259C)” value ([2]; FK506 50 μM) of the same compound?
Its value is 1 fold.

And the “fold induction of HSP78 (YDR258C)” value ([2]; FK506 50 μM)?
The value was 1 fold.

What about the “fold induction of HSP82 (YPL240C)” value ([2]; FK506 50 μM) of the same compound?
Its value is 1 fold.

And the “fold induction of HSP104 (YLL026W)” value ([2]; FK506 50 μM)?
The value was 1 fold.

And the “fold induction of SSA1 (YAL005C)” value ([2]; FK506 50 μM)?
The value was 1 fold.

And the “fold induction of UBC5 (YDR059c)” value ([2]; FK506 50 μM)?
Its value is 1.1 fold.

And the “fold induction of AMS1 (YGL156W)” value ([2]; FK506 50 μm)?
The value was 2.2 fold.

What about the “fold induction of GFA1 (YKL104C)” value ([2]; FK506 50 μm) of the same compound?
Its value is 1 fold.

And the “fold induction of GSC2 (YGR032W)” value ([2]; FK506 50 μm)?
The value was 1.1 fold.

And the “fold induction of HXT5 (YHR096C)” value ([2]; FK506 50 μm)?
The value was 1.6 fold.

What about the “fold induction of ISF1 (YMR081C)” value ([2]; FK506 50 μm) of the same compound?
The value was 5.4 fold.

And the “fold induction of PAI3 (YMR174C)” value ([2]; FK506 50 μm)?
The value was 1 fold.

What about the “fold induction of PRY1 (YJL079C)” value ([2]; FK506 50 μm) of the same compound?
Its value is 1 fold.

What about the “fold induction of PUT1 (YLR142W)” value ([2]; FK506 50 μm) of the same compound?
The value was 7.6 fold.

What about the “fold induction of SNZ3 (YFL059W)” value ([2]; FK506 50 μm) of the same compound?
The value was 6.3 fold.

What about the “fold induction of TSI1 (YLR178C)” value ([2]; FK506 50 μm) of the same compound?
Its value is 1.3 fold.

And the “fold induction of YBL049W” value ([2]; FK506 50 μm)?
The value was 6.7 fold.

And the “fold induction of YDR018C” value ([2]; FK506 50 μm)?
The value was 8.9 fold.

What about the “fold induction of YFL030W” value ([2]; FK506 50 μm) of the same compound?
Its value is 2 fold.

And the “fold induction of YFR026C” value ([2]; FK506 50 μm)?
Its value is 3.7 fold.

What about the “fold induction of YGR043C” value ([2]; FK506 50 μm) of the same compound?
The value was 2.1 fold.

And the “fold induction of YIL042C” value ([2]; FK506 50 μm)?
The value was 2.7 fold.

What about the “fold induction of YIL117C” value ([2]; FK506 50 μm) of the same compound?
The value was 1 fold.

What about the “fold induction of YJL144W” value ([2]; FK506 50 μm) of the same compound?
Its value is 7.6 fold.

And the “fold induction of YKL107W” value ([2]; FK506 50 μm)?
Its value is 2.5 fold.

And the “fold induction of YLR053C” value ([2]; FK506 50 μm)?
Its value is 5.5 fold.

What about the “fold induction of YLR080W” value ([2]; FK506 50 μm) of the same compound?
Its value is 5.5 fold.

What about the “fold induction of YLR194C” value ([2]; FK506 50 μm) of the same compound?
The value was 1 fold.

What about the “fold induction of YMR040W” value ([2]; FK506 50 μm) of the same compound?
The value was 1.6 fold.

And the “fold induction of YMR090W” value ([2]; FK506 50 μm)?
The value was 1.2 fold.

What about the “fold induction of YMR107W” value ([2]; FK506 50 μm) of the same compound?
Its value is 5.9 fold.

What about the “fold induction of YNL194C” value ([2]; FK506 50 μm) of the same compound?
Its value is 6.3 fold.

What about the “fold induction of YPS3 (YLR121C)” value ([2]; FK506 50 μm) of the same compound?
The value was 2.5 fold.

What does the source list for Nc1nc[nH]n1 [3-amino triazole, 3-amino-triazole]?
fluorescent activity from hsp26 reporter construct (tub2 heterozygote): F; fluorescent activity from hsp26 reporter construct (alg7 heterozygote): F; fluorescent activity from hsp26 reporter construct (his3 heterozygote): NF; sensitivity of strain to drug (his3 heterozygous strain): sensitive; fluorescent activity from hsp26 reporter construct (Wildtype strain): F
